The target of assay [1] is T1, Sigma^70 saturated E. coli RNA Polymerase (Escherichia coli, UniProt P0A8T7+P0A8V2).
T1 construct: purchased Epicenter
Nature of the assay: RNA polymerase inhibition assay (E. coli enzyme). To be noted: Table 1; enzyme not named, method uses E. coli RNA polymerase; read-out: IC50. It is filed as biochemical. As for the experimental part:
The compounds of the present invention can be evaluated for antibacterial activity in a variety of assay formats known to those of skill in art. The specific assays used to select the most appropriate compound for use will typically depend on the targeted bacteria or infection. One common assay involves evaluation of the compounds as RNA polymerase inhibitors. In this assay, buffer (250 mM KCl, 5% Glycerol, 10 mM MgCl2, 0.1 mg/ml BSA) is combined with 6 mM B-M.E., PT5 DNA template, and 1.3 ug/rxn Sigma^70 saturated E. coli RNA Polymerase (Epicenter). The compound is then added in a manner not to exceed 5% DMSO. Nucleotide triphosphates are then added at the following concentration: 250 uM ATP, […] and UTP with 100 uM cold CTP and 50 uM alpha ^32P CTP. The mixture is incubated for 10 min at about 37° C. A [2×] loading buffer is added and the mixture is then run on a 6% urea denaturing PAGE until bromophenol blue reaches the edge of plate. The gel is soaked (about 20 minutes in 10% MeOH and 10% acetic acid, to remove urea), then dried (about 55 minutes at about 85° C. (BioRad Gel Drier)) and exposed to a Phospho Imaging Plate for 1 hour. The plate is then read on a Fujix Bas1000 Imaging System and quantified using MacBas v2.0 software. An IC50 (in uM) can be calculated as the concentration of a drug which reduces the enzyme activity to 50% of the control.

In a further assay the test system is E. coli (tolC). Nature of the assay: MIC determination, E. coli (tolC). It is filed as cell-based. To be noted: Escherichia coli, 16 h, read-out: E. c(tolC) (bacterial MIC). On the procedure: (§1) For MIC determinations for selected bacteria, log phase growing bacteria are re-suspended at 1×10^5 bacteria per mL in LB medium. The compound is added and two-fold dilutions are made. The final volume in the 96-well plate is about 100 uL. The plate is incubated at 37° C. in the dark with shaking. After 16 hours of incubation, growth is monitored by reading A600 or by visual inspection. MIC is defined as the minimum concentration of drug resulting in inhibition of visible growth of bacterial under the conditions described (above) in National Committee for Clinical Laboratory Standards 1993. Methods for dilution antimicrobial susceptibility tests for bacteria that grow aerobically. Approved standard M7-A3; National Committee for Clinical Laboratory Standards: Villanova, Pa.

A further assay concerns B. su. Nature of the assay: MIC determination, B. su. It is filed as cell-based. As to conditions: Table 1, 16 hours at 37° C. in LB medium, read-out: B. su (bacterial MIC). On the procedure: as §1
Another assay deals with S. aureus. Nature of the assay: MIC determination, S. aureus. The format is cell-based. To be noted: Staphylococcus aureus; Table 1; MIC, 16 hours at 37° C. in LB medium; read-out: S. au (bacterial MIC). On the procedure:
The compound is added and two-fold dilutions are made. The final volume in the 96-well plate is about 100 uL. The plate is incubated at 37° C. in the dark with shaking. After 16 hours of incubation, growth is monitored by reading A600 or by visual inspection. […] Methods for dilution antimicrobial susceptibility tests for bacteria that grow aerobically. Approved standard M7-A3; National Committee for Clinical Laboratory Standards: Villanova, Pa.

The values below come from patent publication US7053234B2 (Amgen Inc., priority 2000, dated 2006).

Values after ≈ are worked out from the molar mass of the structure shown.

T1 sequence (P0A8V2 whole entry): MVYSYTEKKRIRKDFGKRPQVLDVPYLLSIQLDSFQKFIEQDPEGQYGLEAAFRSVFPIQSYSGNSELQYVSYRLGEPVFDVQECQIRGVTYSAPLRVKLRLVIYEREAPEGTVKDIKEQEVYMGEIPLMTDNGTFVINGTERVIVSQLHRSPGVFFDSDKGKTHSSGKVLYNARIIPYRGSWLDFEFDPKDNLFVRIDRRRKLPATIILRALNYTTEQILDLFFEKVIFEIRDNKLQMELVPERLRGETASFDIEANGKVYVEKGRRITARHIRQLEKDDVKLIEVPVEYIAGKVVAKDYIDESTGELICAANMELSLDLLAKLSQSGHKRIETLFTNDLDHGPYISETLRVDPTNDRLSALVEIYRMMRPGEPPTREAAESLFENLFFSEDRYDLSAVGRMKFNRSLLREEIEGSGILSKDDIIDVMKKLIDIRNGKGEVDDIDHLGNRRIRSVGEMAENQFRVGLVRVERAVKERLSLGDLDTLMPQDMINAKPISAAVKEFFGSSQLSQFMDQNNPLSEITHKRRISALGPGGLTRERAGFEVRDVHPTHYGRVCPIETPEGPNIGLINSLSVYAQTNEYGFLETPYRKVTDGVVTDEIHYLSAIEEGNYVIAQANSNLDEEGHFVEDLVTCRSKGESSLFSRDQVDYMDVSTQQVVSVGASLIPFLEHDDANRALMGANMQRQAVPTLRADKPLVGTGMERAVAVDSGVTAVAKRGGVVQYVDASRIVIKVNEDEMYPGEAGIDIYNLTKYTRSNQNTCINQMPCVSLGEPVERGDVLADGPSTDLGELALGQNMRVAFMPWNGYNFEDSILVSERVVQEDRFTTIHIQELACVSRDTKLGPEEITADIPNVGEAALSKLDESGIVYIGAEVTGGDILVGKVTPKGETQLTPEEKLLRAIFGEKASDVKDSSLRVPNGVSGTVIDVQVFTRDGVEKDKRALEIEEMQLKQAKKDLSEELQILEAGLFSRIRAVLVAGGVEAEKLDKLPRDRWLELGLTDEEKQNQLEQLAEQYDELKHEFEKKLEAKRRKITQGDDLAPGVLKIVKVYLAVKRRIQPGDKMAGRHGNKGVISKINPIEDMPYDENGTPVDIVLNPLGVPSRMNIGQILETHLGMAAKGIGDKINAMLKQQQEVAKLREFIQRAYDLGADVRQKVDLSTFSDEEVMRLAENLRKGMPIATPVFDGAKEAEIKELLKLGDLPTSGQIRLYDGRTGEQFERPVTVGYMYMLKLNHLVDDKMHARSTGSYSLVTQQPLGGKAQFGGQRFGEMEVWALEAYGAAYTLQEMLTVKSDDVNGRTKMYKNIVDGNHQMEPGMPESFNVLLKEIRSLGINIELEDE
T1 sequence (P0A8T7 whole entry): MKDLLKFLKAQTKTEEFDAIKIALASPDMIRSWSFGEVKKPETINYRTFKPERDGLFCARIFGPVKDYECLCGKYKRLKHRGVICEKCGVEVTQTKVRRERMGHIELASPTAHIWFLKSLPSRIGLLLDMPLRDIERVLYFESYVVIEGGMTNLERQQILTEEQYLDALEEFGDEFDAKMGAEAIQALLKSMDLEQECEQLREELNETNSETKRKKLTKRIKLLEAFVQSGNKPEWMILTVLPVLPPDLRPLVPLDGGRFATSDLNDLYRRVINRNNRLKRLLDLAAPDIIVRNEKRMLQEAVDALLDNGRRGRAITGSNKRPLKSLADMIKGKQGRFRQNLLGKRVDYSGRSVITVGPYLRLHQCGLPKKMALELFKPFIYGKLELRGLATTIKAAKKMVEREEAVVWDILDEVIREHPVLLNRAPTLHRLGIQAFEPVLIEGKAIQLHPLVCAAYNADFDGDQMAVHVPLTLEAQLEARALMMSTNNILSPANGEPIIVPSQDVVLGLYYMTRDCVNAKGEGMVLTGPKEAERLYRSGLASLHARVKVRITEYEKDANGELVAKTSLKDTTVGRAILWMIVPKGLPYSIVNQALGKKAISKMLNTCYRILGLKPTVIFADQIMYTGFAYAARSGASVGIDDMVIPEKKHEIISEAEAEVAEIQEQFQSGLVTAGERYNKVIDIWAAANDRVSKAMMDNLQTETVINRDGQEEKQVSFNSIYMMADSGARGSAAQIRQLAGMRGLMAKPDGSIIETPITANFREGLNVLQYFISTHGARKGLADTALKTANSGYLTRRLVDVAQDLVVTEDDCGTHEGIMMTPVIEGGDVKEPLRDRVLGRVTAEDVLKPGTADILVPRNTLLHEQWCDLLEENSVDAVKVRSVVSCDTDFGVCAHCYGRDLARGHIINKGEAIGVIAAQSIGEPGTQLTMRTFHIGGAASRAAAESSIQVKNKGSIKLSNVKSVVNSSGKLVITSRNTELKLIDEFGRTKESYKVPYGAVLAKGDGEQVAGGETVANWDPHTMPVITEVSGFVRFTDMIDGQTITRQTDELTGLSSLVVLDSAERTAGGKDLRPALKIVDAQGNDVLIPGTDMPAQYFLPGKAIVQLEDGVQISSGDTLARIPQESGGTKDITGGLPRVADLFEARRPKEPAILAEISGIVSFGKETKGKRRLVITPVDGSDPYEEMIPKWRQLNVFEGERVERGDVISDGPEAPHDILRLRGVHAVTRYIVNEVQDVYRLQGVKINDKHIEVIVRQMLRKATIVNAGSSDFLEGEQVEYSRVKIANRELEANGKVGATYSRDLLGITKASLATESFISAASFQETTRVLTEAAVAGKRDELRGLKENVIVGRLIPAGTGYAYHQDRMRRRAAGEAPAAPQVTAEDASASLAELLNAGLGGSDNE
T1 sequence (P0A7Z4 whole entry partner): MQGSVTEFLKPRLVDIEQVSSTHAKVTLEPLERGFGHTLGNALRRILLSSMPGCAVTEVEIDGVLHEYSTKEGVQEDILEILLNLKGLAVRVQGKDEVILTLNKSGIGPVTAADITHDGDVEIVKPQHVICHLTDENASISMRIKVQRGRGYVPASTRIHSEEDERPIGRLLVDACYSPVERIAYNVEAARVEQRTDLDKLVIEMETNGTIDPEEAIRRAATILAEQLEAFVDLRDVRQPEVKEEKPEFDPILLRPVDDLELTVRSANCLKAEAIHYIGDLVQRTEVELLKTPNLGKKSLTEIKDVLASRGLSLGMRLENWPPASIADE
T1 sequence (P0A800 whole entry partner): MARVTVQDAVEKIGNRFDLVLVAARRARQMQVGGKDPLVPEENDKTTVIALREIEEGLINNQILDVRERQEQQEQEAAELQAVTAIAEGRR
T1 sequence (P00579 whole entry partner): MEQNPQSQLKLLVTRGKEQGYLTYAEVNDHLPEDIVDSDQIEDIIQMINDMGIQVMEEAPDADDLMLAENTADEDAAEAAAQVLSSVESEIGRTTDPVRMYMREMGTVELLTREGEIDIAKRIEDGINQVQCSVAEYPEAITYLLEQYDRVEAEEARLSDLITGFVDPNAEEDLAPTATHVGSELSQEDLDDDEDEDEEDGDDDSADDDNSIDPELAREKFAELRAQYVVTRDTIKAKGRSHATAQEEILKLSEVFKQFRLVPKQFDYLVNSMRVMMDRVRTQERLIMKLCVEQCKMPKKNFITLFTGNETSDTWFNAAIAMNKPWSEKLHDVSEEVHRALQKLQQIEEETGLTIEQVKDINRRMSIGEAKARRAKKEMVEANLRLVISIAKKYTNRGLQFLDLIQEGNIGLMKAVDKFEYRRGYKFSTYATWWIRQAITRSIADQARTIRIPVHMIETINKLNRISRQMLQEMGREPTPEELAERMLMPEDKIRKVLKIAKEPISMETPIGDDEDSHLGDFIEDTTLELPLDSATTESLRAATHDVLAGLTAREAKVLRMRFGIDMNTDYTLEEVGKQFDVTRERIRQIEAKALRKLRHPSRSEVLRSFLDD

In the case of `O=[N+]([O-])c1cc(C(=NO)Nc2ccccc2)ccc1Cl` [Example 15], the IC50 in assay [1] fell in the range of 10 to 50 µM. In addition, the MIC in the assay with E. coli (tolC), with B. su and in the assay with S. aureus was more than 125 µM each time.

On to `ON=C(Nc1ccccc1)c1ccc(F)c(C(F)(F)F)c1` [Example 16], for which the IC50 in assay [1] is 10 to 50 µM. In addition, the MIC was less than 40 µM in the assay on E. coli (tolC), 40 to 125 µM (≈ 11.9 to 37.3 µg/mL) with B. su and more than 125 µM in the assay with S. aureus.

For `ON=C(Nc1cccc(Cl)c1)c1ccc(Cl)c(C(F)(F)F)c1` [Example 64], the IC50 in assay [1] is less than 10 µM. Further, the MIC in the assay with E. coli (tolC), in the assay on B. su and in the assay on S. aureus was less than 40 µM throughout.

For the compound `ON=C(Nc1ccccc1)c1ccc(Cl)c(C(F)(F)F)c1` [Example 65], the IC50 in assay [1] is less than 10 µM. Besides, the MIC is less than 40 µM in the assay on E. coli (tolC), 40 to 125 µM (≈ 12.6 to 39.3 µg/mL) in the assay with B. su and less than 40 µM in the assay with S. aureus.

For the compound `ON=C(Nc1ccccc1)c1cc(C(F)(F)F)cc(C(F)(F)F)c1` [R′=3-CF3, R″=5-CF3, R′″=H], the IC50 in assay [1] was more than 50 µM. Besides, the MIC in the assay with E. coli (tolC) is less than 40 µM; with B. su, 40 to 125 µM (≈ 13.9 to 43.5 µg/mL); in the assay with S. aureus it was 40 to 125 µM (≈ 13.9 to 43.5 µg/mL).

Turning to `ON=C(Nc1cccc(Br)c1)c1cccc(C(F)(F)F)c1` [R′=3-CF3, R″=H, R′″=3-Br], the IC50 in assay [1] lay in the range of 10 to 50 µM. Also, the MIC in the assay on E. coli (tolC) was less than 40 µM; with B. su, less than 40 µM; in the assay on S. aureus it was 40 to 125 µM (≈ 14.4 to 44.9 µg/mL).

For the compound `N#Cc1cccc(NC(=NO)c2cccc(C(F)(F)F)c2)c1` [R′=3-CF3, R″=H, R′″=3-CN], the IC50 in assay [1] is more than 50 µM. Moreover, the MIC was 40 to 125 µM (≈ 12.2 to 38.2 µg/mL) in the assay with E. coli (tolC), more than 125 µM with B. su and more than 125 µM with S. aureus.

`ON=C(Nc1cccc(F)c1)c1cccc(C(F)(F)F)c1` [R′=3-CF3, R″=H, R′″=3-F]: in assay [1], the IC50 fell in the range of 10 to 50 µM. For the same compound, the MIC in the assay on E. coli (tolC) was less than 40 µM; with B. su, 40 to 125 µM (≈ 11.9 to 37.3 µg/mL); in the assay on S. aureus, 40 to 125 µM (≈ 11.9 to 37.3 µg/mL).

As to `ON=C(Nc1cccc(Oc2ccccc2)c1)c1cccc(C(F)(F)F)c1` [R′=3-CF3, R″=H, R′″=3-OPh], in assay [1], the IC50 was more than 50 µM. In addition, the MIC in the assay with E. coli (tolC), in the assay on B. su and in the assay with S. aureus was less than 40 µM throughout.

With `ON=C(Nc1cccc(F)c1)c1ccc(Cl)c(Cl)c1` [R′=3-Cl, R″=4-Cl, R′″=3-F], the IC50 in assay [1] is 10 to 50 µM. The MIC with E. coli (tolC) is less than 40 µM; with B. su, 40 to 125 µM (≈ 12 to 37.4 µg/mL); in the assay on S. aureus it was 40 to 125 µM (≈ 12 to 37.4 µg/mL).

Take `ON=C(Nc1cccc(Cl)c1)c1cccc(OC(F)(F)F)c1` [R′=3-OCF3, R″=H, R′″=3-Cl]: the IC50 in assay [1] was 10 to 50 µM. Further, the MIC in the assay with E. coli (tolC) was less than 40 µM; in the assay with B. su, less than 40 µM; with S. aureus, 40 to 125 µM (≈ 13.2 to 41.3 µg/mL).

In the case of `ON=C(Nc1cccc(Cl)c1)c1ccc(Cl)cc1` [R′=4-Cl, R″=H, R′″=3-Cl], the IC50 in assay [1] is more than 50 µM. The MIC was less than 40 µM with E. coli (tolC), 40 to 125 µM (≈ 11.2 to 35.1 µg/mL) in the assay with B. su and 40 to 125 µM (≈ 11.2 to 35.1 µg/mL) in the assay with S. aureus.
